Results on 21 molecules are retold here after patent US8450313B2, “2,3-diaryl- or heteroaryl-substituted 1,1,1-trifluoro-2-hydroxypropyl compounds” (Hoffmann-La Roche Inc., priority 2009, dated 2013).

The target of this experiment is T1, full length human recombinant glucocorticoid receptor (Homo sapiens, UniProt P04150).
T1 construct: It contains some partially purified full length human recombinant glucocorticoid receptor; purchased Panvera/Invitrogen PV4302
T1 sequence (P04150 1-777): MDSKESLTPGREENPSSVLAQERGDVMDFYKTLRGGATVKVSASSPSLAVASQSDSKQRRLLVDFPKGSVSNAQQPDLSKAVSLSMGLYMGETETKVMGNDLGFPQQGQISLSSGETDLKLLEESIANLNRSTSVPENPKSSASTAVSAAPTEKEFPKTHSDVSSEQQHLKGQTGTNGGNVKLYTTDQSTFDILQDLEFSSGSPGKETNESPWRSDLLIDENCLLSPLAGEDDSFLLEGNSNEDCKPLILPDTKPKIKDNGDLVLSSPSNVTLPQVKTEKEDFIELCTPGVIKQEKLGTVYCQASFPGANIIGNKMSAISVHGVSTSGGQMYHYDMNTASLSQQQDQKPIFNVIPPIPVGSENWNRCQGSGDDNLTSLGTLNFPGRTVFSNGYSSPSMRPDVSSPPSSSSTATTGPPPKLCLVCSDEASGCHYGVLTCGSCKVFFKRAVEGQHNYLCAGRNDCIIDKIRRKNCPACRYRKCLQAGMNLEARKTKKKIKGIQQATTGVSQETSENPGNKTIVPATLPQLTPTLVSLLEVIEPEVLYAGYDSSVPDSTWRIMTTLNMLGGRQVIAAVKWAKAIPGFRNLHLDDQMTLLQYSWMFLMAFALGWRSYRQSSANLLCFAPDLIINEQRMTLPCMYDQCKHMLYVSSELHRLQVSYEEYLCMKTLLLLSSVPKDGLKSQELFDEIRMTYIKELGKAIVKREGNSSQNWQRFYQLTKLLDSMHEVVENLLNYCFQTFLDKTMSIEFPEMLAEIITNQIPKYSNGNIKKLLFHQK
In words: Glucocorticoid Receptor Binding Assay (Glucocorticoid Receptor Competitor Assay far red kit, fluorescence polarization). The conditions noted are these: competition with fluorescent GR ligand Fluormone GS Far Red, 3 hours at 22° C., pH 7.4; Ki calculated from IC50 by Cheng-Prusoff. The essentials:
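Compounds in serial dilution (from intermediate 4.2% DMSO stock) displace Fluormone GS Far Red from full-length human recombinant GR with stabilizing peptide, pH 7.4, incubated 3 hours at 22° C dark. Polarized fluorescence (610–660 nm) gives IC50 via sigmoidal fit, converted to Ki by Cheng-Prusoff.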

Regarding `C[C@H](c1ccc(-c2ccc(C(=O)O)c(F)c2)cc1Cl)[C@@](O)(c1ccc2[nH]c(=O)[nH]c2c1)C(F)(F)F` (relative stereo) [Example 114, 3′-Chloro-3-fluoro-4′-[3,3,3-trifluoro-2-hydroxy-1-methyl-2-(2-oxo-2,3-dihydro-1H-benzoimidazol-5-yl)-propyl]-biphenyl-4-carboxylic acid], the Ki was 354 nM. For `C[C@H](c1ccc(Br)cc1Cl)[C@@](O)(c1ccc2oc(=O)n(C)c2c1)C(F)(F)F` (relative stereo) [Example 116, 5-[2-(4-Bromo-2-chloro-phenyl)-1-hydroxy-1-trifluoromethyl-propyl]-3-methyl-3H-benzooxazol-2-one], the Ki is 1 nM. As for `COC(=O)c1ccc(-c2ccc([C@@H](C)[C@@](O)(c3ccc4oc(=O)n(C)c4c3)C(F)(F)F)c(Cl)c2)cc1F` (relative stereo) [Example 117, 3′-Chloro-3-fluoro-4′-[3,3,3-trifluoro-2-hydroxy-1-methyl-2-(3-methyl-2-oxo-2,3-dihydro-benzooxazol-5-yl)-propyl]-biphenyl-4-carboxylic acid methyl ester], the Ki was 2.2 nM. On to `CCOC(=O)c1cc(-c2ccc([C@H](C)[C@](O)(c3ccc4oc(=O)n(C)c4c3)C(F)(F)F)c(Cl)c2)ccc1F` (relative stereo) [Example 121, 3′-Chloro-4-fluoro-4′-[3,3,3-trifluoro-2-hydroxy-1-methyl-2-(3-methyl-2-oxo-2,3-dihydro-benzooxazol-5-yl)-propyl]-biphenyl-3-carboxylic acid ethyl ester], for which the inhibitory constant (Ki) was 1.6 nM.

With `C[C@H](c1ccc(-c2ccc(F)c(C(=O)O)c2)cc1Cl)[C@@](O)(c1ccc2oc(=O)n(C)c2c1)C(F)(F)F` (relative stereo) [Example 122, 3′-Chloro-4-fluoro-4′-[3,3,3-trifluoro-2-hydroxy-1-methyl-2-(3-methyl-2-oxo-2,3-dihydro-benzooxazol-5-yl)-propyl]-biphenyl-3-carboxylic acid], the inhibition constant Ki was 0.5 nM. Take `COC(=O)c1ccc(-c2ccc([C@@H](C)[C@@](O)(c3ccc4oc(=O)n(C)c4c3)C(F)(F)F)c(Cl)c2)cc1Cl` (relative stereo) [Example 123, 3,3′-Dichloro-4′-[3,3,3-trifluoro-2-hydroxy-1-methyl-2-(3-methyl-2-oxo-2,3-dihydro-benzooxazol-5-yl)-propyl]-biphenyl-4-carboxylic acid methyl ester]: the inhibitory constant (Ki) is 1.1 nM. In the case of `C[C@H](c1ccc(-c2ccc(C(=O)O)c(Cl)c2)cc1Cl)[C@@](O)(c1ccc2oc(=O)n(C)c2c1)C(F)(F)F` (relative stereo) [Example 124, 3,3′-Dichloro-4′-[3,3,3-trifluoro-2-hydroxy-1-methyl-2-(3-methyl-2-oxo-2,3-dihydro-benzooxazol-5-yl)-propyl]-biphenyl-4-carboxylic acid], the inhibitory constant (Ki) is 0.3 nM. Turning to `COC(=O)c1ccc(-c2ccc([C@@H](C)[C@@](O)(c3ccc4oc(=O)n(C)c4c3)C(F)(F)F)c(Cl)c2)c(F)c1` (relative stereo) [Example 125, 3′-Chloro-2-fluoro-4′-[3,3,3-trifluoro-2-hydroxy-1-methyl-2-(3-methyl-2-oxo-2,3-dihydro-benzooxazol-5-yl)-propyl]-biphenyl-4-carboxylic acid methyl ester], the Ki is 1 nM.

On to `C[C@H](c1ccc(-c2ccc(C(=O)O)cc2F)cc1Cl)[C@@](O)(c1ccc2oc(=O)n(C)c2c1)C(F)(F)F` (relative stereo) [Example 126, 3′-Chloro-2-fluoro-4′-[3,3,3-trifluoro-2-hydroxy-1-methyl-2-(3-methyl-2-oxo-2,3-dihydro-benzooxazol-5-yl)-propyl]-biphenyl-4-carboxylic acid], for which the Ki was 0.5 nM. For the molecule `C[C@H](c1ccc(-c2ccc(C(=O)O)cn2)cc1Cl)[C@@](O)(c1ccc2oc(=O)n(C)c2c1)C(F)(F)F` (relative stereo) [Example 128, 6-{3-Chloro-4-[3,3,3-trifluoro-2-hydroxy-1-methyl-2-(3-methyl-2-oxo-2,3-dihydro-benzooxazol-5-yl)-propyl]-phenyl}-nicotinic acid], the inhibitory constant (Ki) was 1.7 nM. `CCOC(=O)COc1ccc(-c2ccc([C@@H](C)[C@@](O)(c3ccc4oc(=O)n(C)c4c3)C(F)(F)F)c(Cl)c2)cc1` (relative stereo) [Example 129, {3′-Chloro-4′-[3,3,3-trifluoro-2-hydroxy-1-methyl-2-(3-methyl-2-oxo-2,3-dihydro-benzooxazol-5-yl)-propyl]-biphenyl-4-yloxy}-acetic acid ethyl ester]: the inhibitory constant (Ki) is 1.1 nM.

In the case of `COC(=O)c1ccc(-c2ccc([C@@H](C)[C@@](O)(c3ccc4oc(=O)n(C)c4c3)C(F)(F)F)c(Cl)c2)cc1OC` (relative stereo) [Example 131, 3′-Chloro-3-methoxy-4′-[3,3,3-trifluoro-2-hydroxy-1-methyl-2-(3-methyl-2-oxo-2,3-dihydro-benzooxazol-5-yl)-propyl]-biphenyl-4-carboxylic acid methyl ester], the inhibitory constant (Ki) is 1.2 nM. In the case of `C[C@H](c1ccc(Br)cc1Cl)[C@@](O)(c1ccc2c(c1)oc(=O)n2C)C(F)(F)F` (relative stereo) [Example 133, 6-[2-(4-Bromo-2-chloro-phenyl)-1-hydroxy-1-trifluoromethyl-propyl]-3-methyl-3H-benzooxazol-2-one] it was 1.6 nM. Turning to `C[C@H](c1ccc(-c2ccc(C(=O)O)c(F)c2)cc1Cl)[C@@](O)(c1ccc2c(c1)oc(=O)n2C)C(F)(F)F` (relative stereo) [Example 134, 3′-Chloro-3-fluoro-4′-[3,3,3-trifluoro-2-hydroxy-1-methyl-2-(3-methyl-2-oxo-2,3-dihydro-benzooxazol-6-yl)-propyl]-biphenyl-4-carboxylic acid], the Ki was 109 nM.

On to `C[C@H](c1ccc(-c2ccc(C(=O)O)c(Cl)c2)cc1Cl)[C@@](O)(c1ccc2c(c1)oc(=O)n2C)C(F)(F)F` (relative stereo) [Example 135, 3,3′-Dichloro-4′-[3,3,3-trifluoro-2-hydroxy-1-methyl-2-(3-methyl-2-oxo-2,3-dihydro-benzooxazol-6-yl)-propyl]-biphenyl-4-carboxylic acid], for which the inhibitory constant (Ki) was 154 nM. Take `COC(=O)c1ccc(-c2ccc([C@H](C)[C@](O)(c3cc4c(cc3F)OCC(=O)N4C)C(F)(F)F)c(Cl)c2)cc1F` (relative stereo) [Example 136, 3′-Chloro-3-fluoro-4′-[3,3,3-trifluoro-2-(7-fluoro-4-methyl-3-oxo-3,4-dihydro-2H-benzo[1,4]oxazin-6-yl)-2-hydroxy-1-methyl-propyl]-biphenyl-4-carboxylic acid methyl ester]: the inhibition constant (Ki) was 1.3 nM. On to `COC(=O)c1ccc(Oc2ccc([C@H](C)[C@](O)(c3cc4c(cc3F)OCC(=O)N4C)C(F)(F)F)c(Cl)c2)cc1Cl` (relative stereo) [Example 138, 2-Chloro-4-{3-chloro-4-[3,3,3-trifluoro-2-(7-fluoro-4-methyl-3-oxo-3,4-dihydro-2H-benzo[1,4]oxazin-6-yl)-2-hydroxy-1-methyl-propyl]-phenoxy}-benzoic acid methyl ester], for which the Ki was 0.6 nM.

As to `COC(=O)c1ccc(Oc2ccc([C@H](C)[C@](O)(c3cc(C)c(C#N)c(C)c3)C(F)(F)F)c(Cl)c2)cc1F` (relative stereo) [Example 141, 4-{3-Chloro-4-[2-(4-cyano-3,5-dimethyl-phenyl)-3,3,3-trifluoro-2-hydroxy-1-methyl-propyl]-phenoxy}-2-fluoro-benzoic acid methyl ester], the Ki was 1.8 nM. Consider `Cc1cc([C@@](O)([C@@H](C)c2ccc(Oc3ccc(C(=O)O)c(Cl)c3)cc2Cl)C(F)(F)F)cc(C)c1C#N` (relative stereo) [Example 144, 2-Chloro-4-{3-chloro-4-[2-(4-cyano-3,5-dimethyl-phenyl)-3,3,3-trifluoro-2-hydroxy-1-methyl-propyl]-phenoxy}-benzoic acid], for which the Ki was 2.5 nM. In the case of `C[C@H](c1ccc(-c2ccc(C(=O)O)c(F)c2)cc1Cl)[C@@](O)(c1ccc(C#N)cc1)C(F)(F)F` (relative stereo) [Example 152, 3′-Chloro-4′-[2-(4-cyano-phenyl)-3,3,3-trifluoro-2-hydroxy-1-methyl-propyl]-3-fluoro-biphenyl-4-carboxylic acid], the Ki was 46.2 nM.

As to `C[C@H](c1ccc(-c2ccc(C(=O)O)c(F)c2)cc1Cl)[C@@](O)(c1cccc(C#N)c1)C(F)(F)F` (relative stereo) [Example 153, 3′-Chloro-4′-[2-(3-cyano-phenyl)-3,3,3-trifluoro-2-hydroxy-1-methyl-propyl]-3-fluoro-biphenyl-4-carboxylic acid], the Ki is 23.2 nM.
